Results on two compounds are retold here after BigSolDB 2.1.

Each structure is given as a SMILES string.

For `Nc1ccc(S(=O)(=O)Nc2nccs2)cc1`, the solubility (mole fraction) (in general, the moles of solute divided by all moles in the saturated solution) (in n-octanol, 298.15 K) is 9.49e-05; the solubility (mole fraction) (in n-octanol, 303.15 K) turned out to be 0.00013; the solubility (mole fraction) (in n-octanol, 308.15 K) was 0.000168; the solubility (mole fraction) (in n-octanol, 313.15 K) turned out to be 0.000206; the solubility (mole fraction) (in water, 298.15 K) was determined as 3.25e-05; the solubility (mole fraction) (in water, 303.15 K) is 4.33e-05. In addition, the solubility (mole fraction) (in water, 308.15 K) turned out to be 5.92e-05 and the solubility (mole fraction) (in water, 313.15 K) turned out to be 7.35e-05.
`Nc1ccc(S(=O)(=O)Nc2ncccn2)cc1`: the solubility (mole fraction) came to 1.39e-05 (in n-octanol, 298.15 K); 1.79e-05 (in n-octanol, 303.15 K); 2.32e-05 (in n-octanol, 308.15 K); 3.09e-05 (in n-octanol, 313.15 K); 4.87e-06 (in water, 298.15 K); 5.98e-06 (in water, 303.15 K). Also, the solubility (mole fraction) runs as follows: (in water, 308.15 K) 7.94e-06; (in water, 313.15 K) 1.09e-05.
